# Test results as given in patent US20250134104A1, “AGROCHEMICAL ADJUVANTS” (Croda International Plc, priority 2022, published 2025).
# System: Botrytis cinerea (ATCC 90479)
# Experiment: Botrytis cinerea hyphal growth inhibition on PDA agar (colony diameter), adjuvant with or without pyraclostrobin
# Assay type: cell-based
# Conditions: for inherent fungicidal activity on their own: adjuvant alone, at any of the concentrations tested; for Fold Change in Growth Inhibition: adjuvant concentration 50 μg/mL (Ia-Ie) or 64 μg/mL (If, Ig), 48 hours at 22° C., relative to fungicide alone; for fold increase in fungicidal activity compared to pyraclostrobin alone: pyraclostrobin at 0.06 μg/mL, against B. cinerea
# Procedure: Percent Inhibition-The percent inhibition will be understood to represent the amount the fungicide and/or adjuvant that inhibits the visible growth of the microorganism after 48 hours incubation at 22° C. relative to vehicle treated controls. This is calculated using the following formula:
# ØC=diameter of the colony grown on agar supplemented with vehicle (i.e. vehicle treated control), and
# ØT=diameter of the colony grown on agar supplemented with fungicide and/or adjuvant formulated in an appropriate vehicle (i.e., solvent such as water C2H5OH, CH3OH, CH3CN, DMSO).
# Fold Change—The fold change is a measure of the adjuvant/fungicide combination in inhibiting a microorganism compared to the fungicide alone. This indicates how the adjuvant performs relative to the fungicide alone. This is calculated using the following formula:
# where: • INHAF=percent inhibition of fungal growth when treated with fungicide and adjuvant, and • INHF=percent inhibition of fungal growth when treated with fungicide alone.
# Botrytis cinerea (ATCC 90479) was cultured on Difco Potato Dextrose Agar (PDA) for 7 days with diurnal UV cycles (12 h UV light and 12 h dark). Spores were harvested in a buffered, sterile saline solution (w/v: 0.9% NaCl with 1% Tween 80) and counted using a haemocytometer. The spore suspension was adjusted to a final concentration of 8.5x10^6 spores/mL to create a standardised inoculum.
# To prepare hyphal fragments for adjuvant testing, 8.5x10^4 spores were used to inoculate 10 mL of Difco Potato Dextrose Broth in a 150×25 mm tube. The tube was incubated at 220 RPM, 22° C. for 48 hours.
# To create hyphal fragments from the culture, the culture was transferred to a 50 mL plastic conical tube containing approximately 20 sterile 5 mm diameter glass beads and vortexed for 5 min. After vortexing the tube was allowed to stand for 5 min to allow large mycelial clumps to settle and then the top layer containing hyphal fragments was removed and used as inocula for growth inhibition assays.
# Fungicides and adjuvants were dissolved in methanol and added to molten PDA (˜50° C.) and then the agar was distributed in the wells of 12 well multiwell plates (1 mL/well). The plates were cooled to room temperature and 10 μL of hyphal inoculum was added to the centre of each well. The plates were incubated at 22° C. for 48 hours and then the colony diameter was measured using a digital caliper. The biological growth control consisted of hyphae and vehicle (0.07% methanol), the negative control was media and vehicle (0.07% methanol).
# [1] = with Pyra (pyraclostrobin) 0.0313 μg/mL
# [2] = with Pyra (pyraclostrobin) 0.0625 μg/mL
SMILES,inherent fungicidal activity on their own,Fold Change in Growth Inhibition [1],Fold Change in Growth Inhibition [2],fold increase in fungicidal activity compared to pyraclostrobin alone [fold]
O=C1NC(Cc2ccccc2)C(=O)N2CCCC12 (centres unmarked) [DKP (Ia)],did not demonstrate any inherent fungicidal activity,1.32,1.15,
"O=C1NC(Cc2ccccc2)C(=O)N2CCCCC12 (centres unmarked) [DKP (If), cyclo (-Phe-Pip) diketopiperazine]",did not demonstrate any inherent fungicidal activity,1.34,1.28,
"O=C1NC(Cc2ccccc2)C(=O)N2CCC=C12 (centres unmarked) [DKP (Ig), cyclo (-Phe-dhPro) diketopiperazine]",did not demonstrate any inherent fungicidal activity,1.22,1.27,
CN1CC(=O)N(C)C(Cc2ccccc2)C1=O (centres unmarked) [DKP (Id)],did not demonstrate any inherent fungicidal activity,1.09,1.35,
CN1C(=O)C2CCCN2C(=O)C1Cc1ccccc1 (centres unmarked) [DKP (Ic)],did not demonstrate any inherent fungicidal activity,1.23,1.52,1.52
O=C1CNC(=O)C(Cc2ccccc2)N1 (centres unmarked) [DKP (Ib)],did not demonstrate any inherent fungicidal activity,1.14,1.45,
O=C1NCC(=O)N2CCCC12 (centres unmarked) [DKP (Ie)],did not demonstrate any inherent fungicidal activity,0.96,1.56,1.56
